The text below walks through data of US8853424B2 (Japan Science and Technology Agency, priority 2008, dated 2014).

Assay [1] has as its system SOC (store operated calcium channel). Kind of assay: Measurement of SOC IC50 (thapsigargin store depletion, calcium re-addition, CHO cells). It counts as cell-based. The settings on record: CHO cells, 1 μM thapsigargin, 2 mM calcium chloride, read-out: SOC IC50. As to the method: The SOC (store operated calcium channel)-suppressive action can be measured by the method described in the Example and using, for example, FDSS 3000.
CHO cell culture medium was replaced with a BSS solution which is an extracellular fluidfree of calcium, the compound of the present invention was added 1 min later, and 1 μM thapsigargin was allowed to act thereon 2 min later to deplete intracellular calcium store. […]

The test system of another assay is transglutaminase (TGase). Kind of assay: Measurement of TG (TGase inhibitory activity, monodansyl cadaverine / N,N-dimethylcasein fluorescence, FDSS 3000). It is filed as biochemical. The gist of the method: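 Compound (1 μL of 10 mM stock) added to 0.1 mL reaction: 100 mM HEPES-NaOH pH 7.5, 1 mM CaCl2, 20 μM monodansyl cadaverine, 0.05 mg/mL N,N-dimethylcasein, 5 μg/mL TGase. Rate of fluorescence change at 340 nm measured; DMSO control set to 100; TG50 is the concentration halving activity.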

Assay [2] concerns Truncated N-terminal huntington 150 Q-EGFP-Neuron 2a cells. Briefly: Measurement of x-Fold (polyglutamine aggregation inhibitory activity). It counts as cell-based. As to the method:
In the present invention, the polyglutamine aggregation inhibitory activity (x-Fold) can be measured, for example, by the method described in the Example.
The number of the aggregated cells, and the total number of cells were counted by Array Scan V T1 (manufactured by Cellomics, Pittuburg, USA), and the ratio of the aggregated cells to the total number of cells was determined (x-Fold). […]

Where [3] appears, read: TGase activity with compound (10 mM, 1 μL in 0.1 ml enzyme reaction solution), DMSO control taken as 100.
Setting [4] is: TGase inhibitory activity measurement, unit not given.
Where [5] appears, read: polyglutamine aggregation, Truncated N-terminal huntington 150 Q-EGFP-Neuron 2a cells.
Where [6] appears, read: ratio of aggregated cells to total number of cells, compound 20 μM, 20 hr, almost 1 without compound, smaller = stronger inhibition.

Where two headings read alike, the source gives them in different places.

`NCCSB(c1ccccc1)c1ccc(COCc2ccc(B(SCCN)c3ccccc3)cc2)cc1` [Example 451, bis(4,4′-(phenyl-aminoethylthioboryl)benzyl)ether]: in assay [1], the IC50 – broadly, the concentration at which inhibition is half-maximal – was determined as 1400 nM. Moreover, the “TGase activity remaining (% of DMSO control = 100)” value with transglutaminase (TGase) (setting [3]) and with transglutaminase (TGase) (setting [4]) was 6 throughout. Besides, the x-Fold in assay [2] (setting [5]) and in assay [2] (setting [6]) was 0.91 throughout.

Take `c1ccc(B(OCC2CCCN2)c2ccc(COCc3ccc(B(OCC4CCCN4)c4ccccc4)cc3)cc2)cc1` (stereo not drawn) [Example 452, bis(4,4′-(phenyl-2-pyrrolidinemethoxyboryl)benzyl)ether]: the IC50 in assay [1] is 500 nM. Also, the “TGase activity remaining (% of DMSO control = 100)” value with transglutaminase (TGase) (setting [3]) and in the assay with transglutaminase (TGase) (setting [4]) was 29 throughout. Also, the x-Fold in assay [2] (setting [5]) and in assay [2] (setting [6]) was 0.96 in each case.

In the case of `CCCCNCCOB(c1ccccc1)c1ccc(COCc2ccc(B(OCCNCCCC)c3ccccc3)cc2)cc1` [Example 454, bis(4,4′-(phenyl-butylaminoethoxyboryl)benzyl)ether], the IC50 in assay [1] stood at 500 nM. In addition, the “TGase activity remaining (% of DMSO control = 100)” value in the assay with transglutaminase (TGase) (setting [3]) and with transglutaminase (TGase) (setting [4]) was 15 throughout. The x-Fold in assay [2] (setting [5]) and in assay [2] (setting [6]) was 0.97 throughout.

Take `c1ccc(NCCOB(c2ccccc2)c2ccc(COCc3ccc(B(OCCNc4ccccc4)c4ccccc4)cc3)cc2)cc1` [Example 455, bis(4,4′-(phenyl-phenylaminoethoxyboryl)benzyl)ether]: the IC50 in assay [1] came to 500 nM. Besides, the “TGase activity remaining (% of DMSO control = 100)” value with transglutaminase (TGase) (setting [3]) and in the assay with transglutaminase (TGase) (setting [4]) was 23 each time. For the same molecule, the x-Fold in assay [2] (setting [5]) and in assay [2] (setting [6]) was 1.04 in each case.

Consider `c1ccc(CNCCOB(c2ccccc2)c2ccc(COCc3ccc(B(OCCNCc4ccccc4)c4ccccc4)cc3)cc2)cc1` [Example 456, bis(4,4′-(phenyl-benzylaminoethoxyboryl)benzyl)ether], for which the IC50 in assay [1] turned out to be 500 nM. In addition, the “TGase activity remaining (% of DMSO control = 100)” value in the assay on transglutaminase (TGase) (setting [3]) and in the assay on transglutaminase (TGase) (setting [4]) was 29 in each case. In addition, the x-Fold in assay [2] (setting [5]) and in assay [2] (setting [6]) was 0.87 each time.

For `CN1CCCCC1COB(c1ccccc1)c1ccc(COCc2ccc(B(OCC3CCCCN3C)c3ccccc3)cc2)cc1` (stereo not drawn) [Example 457, bis(4,4′-(phenyl-N-methylpiperidine-methoxyboryl)benzyl)ether], the concentration for half-maximal inhibition (IC50) in assay [1] is 600 nM. The “TGase activity remaining (% of DMSO control = 100)” value in the assay with transglutaminase (TGase) (setting [3]) and in the assay on transglutaminase (TGase) (setting [4]) was 30 throughout. Further, the x-Fold in assay [2] (setting [5]) and in assay [2] (setting [6]) was 1.10 throughout.

With `CC(CN)OB(c1ccccc1)c1ccc(COCc2ccc(B(OC(C)CN)c3ccccc3)cc2)cc1` (stereo not drawn) [Example 458, bis(4,4′-(phenyl-1-methyl-2-aminoethoxyboryl)benzyl)ether], the IC50 in assay [1] worked out at 500 nM. Besides, the “TGase activity remaining (% of DMSO control = 100)” value in the assay on transglutaminase (TGase) (setting [3]) and in the assay with transglutaminase (TGase) (setting [4]) was 31 in each case. For the same molecule, the x-Fold in assay [2] (setting [5]) and in assay [2] (setting [6]) was 1.10 each time.

Take `c1ccc(B(OCC2CCCN2)c2cccc(COCc3cccc(B(OCC4CCCN4)c4ccccc4)c3)c2)cc1` (stereo not drawn) [Example 460, bis(3,3′-(phenyl-2-pyrrolidinomethoxyboryl)benzyl)ether]: in assay [1], the IC50 is 400 nM. Besides, the “TGase activity remaining (% of DMSO control = 100)” value in the assay on transglutaminase (TGase) (setting [3]) and in the assay on transglutaminase (TGase) (setting [4]) was 26 in each case. Besides, the x-Fold in assay [2] (setting [5]) and in assay [2] (setting [6]) was 0.95 each time.

For `NC(COB(c1ccccc1)c1cccc(COCc2cccc(B(OCC(N)c3ccccc3)c3ccccc3)c2)c1)c1ccccc1` (stereo not drawn) [Example 462, bis(3,3′-(phenyl-2-phenyl-2-aminoethoxyboryl)benzyl)ether], in assay [1], the IC50 stood at 300 nM. The “TGase activity remaining (% of DMSO control = 100)” value in the assay on transglutaminase (TGase) (setting [3]) and with transglutaminase (TGase) (setting [4]) was 31 throughout. The x-Fold in assay [2] (setting [5]) and in assay [2] (setting [6]) was 0.92 in each case.

As for `c1ccc(B(OCC2CCCCN2)c2cccc(COCc3cccc(B(OCC4CCCCN4)c4ccccc4)c3)c2)cc1` (stereo not drawn) [Example 463, bis(3,3′-(phenyl-2-piperidylmethoxyboryl)benzyl)ether], the IC50 in assay [1] stood at 300 nM. Also, the “TGase activity remaining (% of DMSO control = 100)” value in the assay on transglutaminase (TGase) (setting [3]) and with transglutaminase (TGase) (setting [4]) was 24 in each case. Moreover, the x-Fold in assay [2] (setting [5]) and in assay [2] (setting [6]) was 0.92 throughout.

On to `CN(C)CCOB(c1ccccc1)c1cccc(COCc2cccc(B(OCCN(C)C)c3ccccc3)c2)c1` [Example 464, bis(3,3′-(phenyl-dimethylaminoethoxyboryl)benzyl)ether], for which the IC50 in assay [1] (no unit printed) came out at 800 nM. The “TGase activity remaining (% of DMSO control = 100)” value in the assay with transglutaminase (TGase) (setting [3]) is 41; with transglutaminase (TGase) (TGase inhibitory activity measurement, unit not given, listed as 3021), 41. Also, the x-Fold in assay [2] (polyglutamine aggregation, Truncated N-terminal huntington 150 Q-EGFP-Neuron 2a cells, listed as 3021) came to 0.76; in assay [2] (setting [6]) it was 0.76.

For the molecule `CC(CN)OB(c1ccccc1)c1cccc(COCc2cccc(B(OC(C)CN)c3ccccc3)c2)c1` (stereo not drawn) [Example 465, bis(3,3′-(phenyl-1-methyl-2-aminoethoxyboryl)benzyl)ether], the IC50 in assay [1] is 200 nM. Moreover, the “TGase activity remaining (% of DMSO control = 100)” value in the assay on transglutaminase (TGase) (setting [3]) and in the assay on transglutaminase (TGase) (setting [4]) was 18 each time. In addition, the x-Fold in assay [2] (setting [5]) and in assay [2] (setting [6]) was 1.06 each time.

On to `c1ccc(B(OCc2ccccn2)c2cccc(COCc3cccc(B(OCc4ccccn4)c4ccccc4)c3)c2)cc1` [Example 467, bis(3,3′-(phenyl-2-pyridylmethoxyboryl)benzyl)ether], for which, in assay [1], the IC50 was found to be 250 nM. In addition, the “TGase activity remaining (% of DMSO control = 100)” value in the assay with transglutaminase (TGase) (setting [3]) and in the assay on transglutaminase (TGase) (setting [4]) was 60 each time. Also, the x-Fold in assay [2] (setting [5]) and in assay [2] (setting [6]) was 0.98 throughout.

Turning to `NCC(OB(c1ccccc1)c1cccc(COCc2cccc(B(OC(CN)c3ccccc3)c3ccccc3)c2)c1)c1ccccc1` (stereo not drawn) [Example 468, bis(3,3′-(phenyl-2-amino-1-phenylethoxyboryl)benzyl)ether], the IC50 in assay [1] worked out at 300 nM. For the same molecule, the “TGase activity remaining (% of DMSO control = 100)” value with transglutaminase (TGase) (setting [3]) and with transglutaminase (TGase) (setting [4]) was 35 in each case. For the same molecule, the x-Fold in assay [2] (setting [5]) and in assay [2] (setting [6]) was 0.98 in each case.

Regarding `CNCCOB(c1ccccc1)c1cccc(COCc2cccc(B(OCCNC)c3ccccc3)c2)c1` [Example 469, bis(3,3′-(phenyl-N-methylaminoethoxyboryl)benzyl)ether], in assay [1], the IC50 stood at 250 nM. In addition, the “TGase activity remaining (% of DMSO control = 100)” value in the assay on transglutaminase (TGase) (setting [3]) and in the assay with transglutaminase (TGase) (setting [4]) was 15 each time. Besides, the x-Fold in assay [2] (setting [5]) and in assay [2] (setting [6]) was 0.94 each time.

`CC(CNCCN)OB(c1ccccc1)c1cccc(COCc2cccc(B(OC(C)CNCCN)c3ccccc3)c2)c1` (stereo not drawn) [Example 470, bis(3,3′-(phenyl-N-aminoethyl-1-methyl-2-aminoethoxyboryl)benzyl)ether]: the IC50 in assay [1] was found to be 300 nM. Also, the “TGase activity remaining (% of DMSO control = 100)” value in the assay with transglutaminase (TGase) (setting [3]) and in the assay with transglutaminase (TGase) (setting [4]) was 19 throughout. Also, the x-Fold in assay [2] (setting [5]) and in assay [2] (setting [6]) was 1.02 throughout.

Regarding `NC(=O)CCC(N)C(=O)OB(c1ccccc1)c1cccc(COCc2cccc(B(OC(=O)C(N)CCC(N)=O)c3ccccc3)c2)c1` (stereo not drawn) [Example 471, bis(3,3′-(phenyl-glutamineboryl)benzyl)ether], in assay [1], the IC50 stood at 600 nM. For the same molecule, the “TGase activity remaining (% of DMSO control = 100)” value with transglutaminase (TGase) (setting [3]) and with transglutaminase (TGase) (setting [4]) was 52 throughout. Moreover, the x-Fold in assay [2] (setting [5]) and in assay [2] (setting [6]) was 1.04 in each case.

Regarding `NCCC(N)C(=O)OB(c1ccccc1)c1cccc(COCc2cccc(B(OC(=O)C(N)CCN)c3ccccc3)c2)c1` (stereo not drawn) [Example 472, bis(3,3′-(phenyl-2,4-diaminobutyric acid boryl)benzyl)ether], the IC50 in assay [1] was 1000 nM. Moreover, the “TGase activity remaining (% of DMSO control = 100)” value in the assay on transglutaminase (TGase) (setting [3]) and in the assay with transglutaminase (TGase) (setting [4]) was 47 throughout. Also, the x-Fold in assay [2] (setting [5]) and in assay [2] (setting [6]) was 0.95 in each case.

With `CCCCNCCOB(c1ccccc1)c1cccc(COCc2cccc(B(OCCNCCCC)c3ccccc3)c2)c1` [Example 473, bis(3,3′-(phenyl-N-butylaminoethoxyboryl)benzyl)ether], the IC50 in assay [1] worked out at 500 nM. The “TGase activity remaining (% of DMSO control = 100)” value with transglutaminase (TGase) (setting [4]) was −4. Moreover, the x-Fold in assay [2] (setting [5]) and in assay [2] (setting [6]) was 0.96 each time.

Take `NC(=O)CC(N)C(=O)OB(c1ccccc1)c1cccc(COCc2cccc(B(OC(=O)C(N)CC(N)=O)c3ccccc3)c2)c1` (stereo not drawn) [Example 474, bis(3,3′-(phenyl-asparagineboryl)benzyl)ether]: the IC50 in assay [1] stood at 500 nM. The “TGase activity remaining (% of DMSO control = 100)” value in the assay with transglutaminase (TGase) (setting [3]) is 145; in the assay with transglutaminase (TGase) (TGase inhibitory activity measurement, unit not given, listed as 3031), 145. Besides, the x-Fold came to 1.04 in assay [2] (polyglutamine aggregation, Truncated N-terminal huntington 150 Q-EGFP-Neuron 2a cells, listed as 3031) and 1.04 in assay [2] (setting [6]).
